According to the COVID Moonshot data (paper PMC11187573), “Identification of SARS-CoV-2 Mpro inhibitors through deep reinforcement learning for de novo drug design and computational chemistry approaches” (RSC Medicinal Chemistry, 2024):

Columns and labels:
[1] = molecular target: SARS-CoV-2 Main Protease (SARS-CoV-2) (UniProt P0DTD1)
[2] = molecular target: SARS-CoV-2 Main Protease (SARS-CoV-2) (UniProt P0DTD1); remark: listed apart in the source

Structure (SMILES)	relative solubility at 20 uM	relative solubility at 100 uM	inhibition ([1]; 20.0 µM) [%]	inhibition ([1]; 50.0 µM) [%]	inhibition ([2]; 50.0 µM) [%]	inhibition ([2]; 20.0 µM) [%]	IC50 [1] [µM]	IC50 [2] [µM]
O=C(NCCNc1cccnn1)c1ccccc1NS(=O)(=O)c1cc(F)ccc1F	1	1	0	12.1	7.83			
COC1(CC(=O)Nc2cnccc2C)CC1	1.01	1		0	13.8	-5.47		
CN1CCC(C(=O)NC2CCCCC2NC(=O)C2CCCCC2)CC1 (stereo not given)	1	1.01	0		-19.4	-19.4		
C=CC(=O)N(c1ccc(C(C)(C)C)cc1)C(C(=O)NC(C)(C)C)c1cncc(Br)c1C (stereo not given)	0.98	0.92	12.9	35.3	7.84	-4.32		
O=C(CCl)N1CCN(Cc2cc(O)ccc2O)CC1	0.99	0.99	63.9	89.9	74.5	57.4	9.28	
C=CC(=O)N(c1ccc(C(C)(C)C)cc1)C(C(=O)NC)c1cccnc1 (stereo not given)	1.01	0.99	57.4	100	69.7	42.1	17	
Cc1ccncc1NC(=O)c1ccc(NC(=O)Nc2cccnc2)cc1	1	0.99	3.1	0	-23			
Cn1nncc1CC(=O)NC(c1ccccc1)c1nc2ccccc2n1C (stereo not given)	1	1	0	0	54.1			
Cc1ccncc1NC(=O)Cc1cccc(S(N)(=O)=O)c1	0.99	0.99		11.5	6.23	11.1		
Cc1ccnc(NC(=O)Cc2ccc3ccccc3c2)c1	0.98	0.94	0		8.23	3.57		
CC1(C)Cc2cccc(OCCNC(=O)c3cc(=O)[nH]c4ccc(Cl)cc34)c2O1	0.97	0.91		18.7	28.8	5.99		
N#Cc1ncccc1NC(=O)Cc1cccc(Cl)c1	0.99	1	0	0	-15.7	-10.2		
C=CC(=O)N(c1ccc(C(C)(C)C)cc1)C(C(=O)NC1CCCCC1)c1cccnc1 (stereo not given)	0.99	1	0	18.6	17.8	13.3		
O=C(CCn1ccnn1)NC(CN1CCOCC1)c1ccccc1 (stereo not given)	1	1	0	0	5.19	2.31		
O=C1NC(c2cccnc2)C(=O)N1c1cccc(Cl)c1 (stereo not given)	0.85	0.91		69.6	33.9	18.1	57.8	
CC(C)CCNC(=O)C(CC(C)C)NC(=O)C1OC1C(=O)O (stereo not given)	1	1		0	-2.95	0.736		
O=C(CCl)N1CCN(Cc2cccc(Cl)c2)CC1	1	1	99.8	100	108		0.545	2.54
C=CC(=O)N(c1ccc(C(C)(C)CC)cc1)C(C(=O)Nc1cccc(F)c1C)c1cccnc1 (stereo not given)	0.86	0.72	3.79		31.8	16.3		

Structure (SMILES)	relative solubility at 20 uM	relative solubility at 100 uM	inhibition ([1]; 20.0 µM) [%]	inhibition ([1]; 50.0 µM) [%]	inhibition ([2]; 50.0 µM) [%]	inhibition ([2]; 20.0 µM) [%]	IC50 [1] [µM]	IC50 [2] [µM]
O=C(Nc1ccc(Oc2ncccn2)cc1)C(=O)N1CCN(Cc2cccs2)CC1	1	1	0		-13.8	-21		
O=C(CCl)Nc1cccc(-c2ccc3c(c2)CCCC3)c1	0.9	0.87		47.7	15.2	10.8		
C=CC(=O)N(c1ccc(C(C)(C)C)cc1)C(C(=O)NCCCC(=O)OCC)c1cccnc1 (stereo not given)	0.99	0.96	0	14.6	30.9	6.16		
O=C(Nc1nncn1C1CC1)[C@@H]1CCOc2ccc(Cl)cc21 (stereo in doubt)	0.99	0.99		-10.4	19.5	-7.38		
C=CC(=O)N(c1cc(C(C)(C)C)n[nH]1)C(C(=O)Nc1c(C)cccc1CC)c1cccnc1 (stereo not given)	0.92	0.78	0		4.71	4.05		
C=CC(=O)N(c1ccc(C(C)(C)C)cc1)C(C(=O)NC(C)(C)C)c1cncc2ccccc12 (stereo not given)	0.85	0.56	0	0	-17.5	-17.7		
CC(=O)NCCc1c[nH]c2c(NCc3ccc4nc[nH]c4c3)cc(F)cc12	0.64	0.86		-4.42	12.1	-13.7		
C=CC(=O)N(c1ccc(N(C)C)c(C)c1)C(C(=O)NC(C)(C)C)c1cccnc1 (stereo not given)	0.98	0.95	0	14.4	8.8	2.89		
O=C(Nc1nncn1C1CC1)C1CCOc2ccc(Cl)cc21 (stereo not given)	1	1		1.9	54.6	46.7		0.598
C=CC(=O)N(c1ccc(C(F)(F)F)cc1)C(C(=O)NCCc1cccc(F)c1)c1cncc(C#N)c1 (stereo not given)	1	0.99		96.5	93.2	53.5	3.01	
CS(=O)(=O)NCCCN1CCCc2ccc(S(N)(=O)=O)cc21	1	1	0	0	-23.8			
C=CC(=O)N(c1ccc(C(C)(C)C)cc1)C(C(=O)NC1CC(C(=O)OC)C1)c1cccnc1 (stereo not given)	0.99	0.98	0	0	4.24	5.7		
Cc1cc(C)cc(NC(=O)Cn2cncc2C)c1	1	1		0	2.72	-2.21		
CCCN(C(=O)Cc1cccc(Cl)c1)c1cccnc1	1	1		36.2	3.25	2.28		
CCC(CC)C(=O)C(C#N)C(=O)Nc1ccc(F)cc1 (stereo not given)	1	1	0	0	-16.2			
O=C(CCl)N1CCN(C(c2ccccc2)C2CCCCC2)CC1 (stereo not given)	0.98	0.78		95.6	98.1	95.8	0.644	4.13
C=CC(=O)N(c1ccc(C(C)(C)C)cc1)C(C(=O)NCC1CCCO1)c1cccnc1 (stereo not given)	1	0.99	0	25.6	44.1	70.8		
